Legend:
[1] = system: volume of edema of left hind paw (carrageenin); assay: Test on anti-inflammatory activity (carrageenin hind paw edema); assay type: in vivo, Wistar male rats; settings: Rattus norvegicus, po, 3 h, p.o., read-out: Percent inhibition (average value ± standard error)
Description: In each group, the volumes of the left hind paw were measured by a volume differential meter (made by Ugo Basile Company), and 0.1 ml of a 1% suspension of carrageenin in distilled water was subcutaneously injected into the plantar tissues of the left hind paw. One hour later, each of the test compounds was suspended in the same vehicle as used in the test on analgesic activity and administered orally to the rats. Three hours later, the volumes of the left hind paw were again measured. The increase in volume of the left hind paw of each rat in each group (the volume of edema) was measured. The percent edema inhibition on the group administered with the test compounds based on the control group administered only with the vehicle was calculated in accordance with the following equation, and the results are shown in Table 2. [formula]

[2] = system: number of writhings (0.6% acetic acid, intraperitoneal); assay: Test on analgesic activity (acetic acid-induced writhing); assay type: in vivo, mice (ddY, male); settings: Mus musculus, po, mice; parentheses = 95% confidence limits
Description: Male mice (ddY) with a body weight of 18 to 22 g were used in groups each consisting of 10 mice. Each of the compounds was suspended in an aqueous solution of 0.5% of carboxymethyl cellulose and 2.0% of Tween 80, and the resulting suspension was administered orally to the mice through a tube. One hour after the administration, 0.6% acetic acid was administered intraperitoneally in an amount of 0.1 ml per 10 g of body weight, and the number of writhings which occurred in the mice during a period of 20 minutes after the administration was measured. The percent inhibition on a group administered with the test compound based on the control group administered only with the vehicle was calculated from the following equation, and the ED50 values of the test compounds were calculated from the percent inhibition in accordance with the method of Litchfield-Wilcoxon. [formula]
The parenthesized numerals show 95% confidence limits.

[3] = in vivo; settings: rat, in vivo, po
Source text: (§1) Each of the test compounds was suspended in a physiological saline solution having dissolved therein 2% of Tween 80, and orally administered through a tube to groups of SD male and female rats (male: 130 to 150 g, female: 120 to 140 g) each group consisting of 8 rats. The rats were then observed for 2 weeks.

[4] = system: SD male and female rats; assay: in vivo; settings: oral
Source text: as §1

Row | Structure (SMILES) | inhibition in vivo at 30 mg/kg [1] | inhibition in vivo at 90 mg/kg [1] | ED50 [2] | also measured
1 | COC(=O)Cc1ccc2c(c1)C(=O)c1ccccc1CN2C [F, methyl 5,6-dihydro-5-methyl-11-oxodibenz[b,e]azepine-2-acetate] | 11.8 ± 3.4% |  |  | 
2 | CNC(=O)Cc1ccc2c(c1)C(=O)c1ccccc1CN2C [Compound E, 5,6-dihydro-5-methyl-11-oxodibenz[b,e]azepine-2-acetic acid methyl amide] | 11.3 ± 4.3% | 44.8 ± 7.5% | 46.5 mg/kg | 
3 | CCCCC1C(=O)N(c2ccccc2)N(c2ccccc2)C1=O [Phenylbutazone, phenylbutazone, reference compound] | 20.7 ± 2.4% | 34.2 ± 5.3% | 130 mg/kg | 
4 | CN1Cc2ccccc2C(=O)c2c(CC(=O)O)cccc21 [C, 5,6-dihydro-5-methyl-11-oxodibenz[b,e]azepine-1-acetic acid] |  | 11.4 ± 12.7% |  | inhibition in vivo at 180 mg/kg ([1]; 180 mg/kg): 28.6 ± 8.3%
5 | CN1Cc2ccccc2C(=O)c2ccc(CC(=O)O)cc21 [Compound D, 5,6-dihydro-5-methyl-11-oxodibenz[b,e]azepine-3-acetic acid] | 36.4 ± 11.9% |  | 78 mg/kg | inhibition in vivo at 10 mg/kg [1]: 26.8 ± 2.9%
6 | CN1Cc2ccccc2C(=O)c2cc(CC(=O)OCCO)ccc21 [K, hydroxyethyl 5,6-dihydro-5-methyl-11-oxodibenz[b,e]azepine-2-acetate] | 23.5 ± 11.1% | 30.4 ± 5.5% |  | 
7 | CCCN1Cc2ccccc2C(=O)c2cc(CC(=O)O)ccc21 [J, 5,6-dihydro-5-n-propyl-11-oxodibenz[b,e]azepine-2-acetic acid] | 18.6 ± 5.2% | 30.4 ± 4.8% | 15.5 mg/kg | 
8 | CN1Cc2ccccc2C(=O)c2cc(CC(=O)O)ccc21 [A, 5,6-dihydro-5-methyl-11-oxodibenz[b,e]azepine-2-acetic acid] | 30.4 ± 4.4% | 43.9 ± 6.6% | 9 mg/kg | inhibition in vivo at 10 mg/kg [1]: 28.5 ± 2.8%
9 | CN1Cc2ccccc2C(=O)c2cc(CC(=O)OCC3COC(C)(C)O3)ccc21 (centres unmarked) [L, 2,2-dimethyl-1,3-dioxolan-5-yl methyl 5,6-dihydro-5-methyl-11-oxodibenz[b,e]azepine-2-acetate] | 17.6 ± 5.1% | 33.3 ± 4% |  | 
10 | CN1Cc2cc(Cl)ccc2C(=O)c2cc(CC(=O)O)ccc21 [H, 5,6-dihydro-5-methyl-8-chloro-11-oxodibenz[b,e]azepine-2-acetic acid] | 26.8 ± 7.3% | 34.9 ± 6.5% |  | 
11 | CC(C(=O)O)c1ccc2c(c1)C(=O)c1ccccc1CN2C (centres unmarked) [B, 2-(5,6-dihydro-5-methyl-11-oxodibenz[b,e]azepin-2-yl)propionic acid] | 23.2 ± 3.2% | 38.6 ± 5.3% | 26 mg/kg | 
12 | CN1Cc2ccccc2C(=O)c2cc(CC(=O)O)cc(Cl)c21 [G, 5,6-dihydro-4-chloro-5-methyl-11-oxodibenz[b,e]azepine-2-acetic acid] | 23.8 ± 6.9% | 35.4 ± 5.5% |  | 
13 | O=C(O)Cc1ccc2c(c1)C(=O)c1ccccc1CN2 [M, 5,6-dihydro-11-oxodibenz[b,e]azepine-2-acetic acid] | 41.2 ± 5.4% |  | 5.1 mg/kg | LD50 at 336 h ([3]; female): 840 mg/kg; LD50 at 336 h ([3]; male): 810 mg/kg; Minimum lethal dose ([4]; female): 720 mg/kg; Minimum lethal dose ([4]; male): 720 mg/kg; inhibition in vivo at 10 mg/kg [1]: 37.3 ± 2.4%
14 | CCN1Cc2ccccc2C(=O)c2cc(CC(=O)O)ccc21 [I, 5,6-dihydro-5-ethyl-11-oxodibenz[b,e]azepine-2-acetic acid] | 25.6 ± 5.8% | 35.1 ± 8.2% | 15.9 mg/kg | inhibition in vivo at 10 mg/kg [1]: 20.2 ± 6.6%
